Among the test systems are CAKI-1 renal; HCT-15 colon; MALME-3M melanoma; NCI-H23 lung; OVCAR-3 ovarian; PC-3 prostate; RPMI-8226 leukemia; SF-539 CNS; SK-MEL-28 melanoma; UO-31 renal.
What all share (assay): NCI-60 cell line screen, 48 h

Each structure is given as a SMILES string.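 Cultured in 96-well plates, cells were exposed to test compound for 48 hours across five concentrations. GI50 marks 50% less growth. TGI: concentration producing complete growth inhibition.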

Regarding `O=C1C=C(NCCO)c2nccc3c2c1nc1ccccc13`, the GI50 was 23.3 µM in the experiment with CAKI-1 renal; 18.6 µM with HCT-15 colon; 17.4 µM in the experiment with MALME-3M melanoma; 19.1 µM with NCI-H23 lung; 18.6 µM in the experiment with OVCAR-3 ovarian; 27.3 µM in the experiment with PC-3 prostate. Also, the GI50 in the experiment with RPMI-8226 leukemia is 24.7 µM; with SF-539 CNS, 22.9 µM; in the experiment with SK-MEL-28 melanoma, 41.4 µM; with UO-31 renal it was 24.6 µM. Moreover, the TGI was 82.2 µM in the experiment on CAKI-1 renal; above 100 µM with HCT-15 colon; 49 µM in the experiment with MALME-3M melanoma; 67.3 µM in the experiment with NCI-H23 lung; 52.6 µM in the experiment with OVCAR-3 ovarian; above 100 µM in the experiment with PC-3 prostate. For the same compound, the TGI in the experiment on RPMI-8226 leukemia was above 100 µM; with SF-539 CNS, 73.1 µM; in the experiment with SK-MEL-28 melanoma, above 100 µM; in the experiment on UO-31 renal it was above 100 µM.

Take `C[C@@H](Nc1cc(F)cc(F)c1)c1cc(C(=O)N(C)C)cc2c(=O)cc(N3CCOCC3)oc12`: the GI50 with CAKI-1 renal is 9.44 µM; with HCT-15 colon, 14.9 µM; with MALME-3M melanoma, 7.12 µM; in the experiment on NCI-H23 lung it was above 87 µM; in the experiment on OVCAR-3 ovarian, 1.25 µM; in the experiment with PC-3 prostate, 0.586 µM. For the same compound, the GI50 with RPMI-8226 leukemia is 36.7 µM; in the experiment with SF-539 CNS, 3.58 µM; with SK-MEL-28 melanoma, 2.5 µM; with UO-31 renal, 2.38 µM. The TGI is above 100 µM in the experiment on CAKI-1 renal; above 100 µM in the experiment with HCT-15 colon; above 84.9 µM with MALME-3M melanoma; above 100 µM with NCI-H23 lung; 61.8 µM with OVCAR-3 ovarian; above 100 µM with PC-3 prostate. Moreover, the TGI with RPMI-8226 leukemia is above 100 µM; in the experiment on SF-539 CNS it was 50.3 µM; with SK-MEL-28 melanoma it was above 100 µM; with UO-31 renal it was above 100 µM.

For the origin of these results see PubChem BioAssay (NCI).
